Results as given in patent publication US6872805B2 (Bristol-Myers Squibb Company, priority 2000, dated 2005).

Columns and labels:
[1] = molecular target: HCV NS3/4A protease complex (Hepatitis C virus genotype 1a, UniProt P27958, C1454S/C1711G); experiment: Recombinant HCV NS3/4A protease complex FRET peptide assay (strain not stated); type: biochemical; details: IC50, NS3/4A protease enzyme assay, strain not stated; activity ranges
[2] = test system: HCV replicon in Huh7 cells; experiment: HCV replicon cell-based assay; design: species or system HCV strain 1B; details: Hepatitis C virus, Huh-7, 96 h; HCV replicon, Huh7 cells, 4 days; activity ranges; read-out: EC50
Summary of the method: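 Genotype 1b subgenomic replicon Huh7 cells exposed to compound 4 days at 37° C in 4% FCS, 0.5% DMSO medium. EC50 from TaqMan RT-PCR of HCV RNA, normalized to total RNA by RiboGreen; CC50 from alamar Blue fluorescence after 4 h.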

Chain of HCV NS3/4A protease complex (P27958 1027-1711, stated change not applied): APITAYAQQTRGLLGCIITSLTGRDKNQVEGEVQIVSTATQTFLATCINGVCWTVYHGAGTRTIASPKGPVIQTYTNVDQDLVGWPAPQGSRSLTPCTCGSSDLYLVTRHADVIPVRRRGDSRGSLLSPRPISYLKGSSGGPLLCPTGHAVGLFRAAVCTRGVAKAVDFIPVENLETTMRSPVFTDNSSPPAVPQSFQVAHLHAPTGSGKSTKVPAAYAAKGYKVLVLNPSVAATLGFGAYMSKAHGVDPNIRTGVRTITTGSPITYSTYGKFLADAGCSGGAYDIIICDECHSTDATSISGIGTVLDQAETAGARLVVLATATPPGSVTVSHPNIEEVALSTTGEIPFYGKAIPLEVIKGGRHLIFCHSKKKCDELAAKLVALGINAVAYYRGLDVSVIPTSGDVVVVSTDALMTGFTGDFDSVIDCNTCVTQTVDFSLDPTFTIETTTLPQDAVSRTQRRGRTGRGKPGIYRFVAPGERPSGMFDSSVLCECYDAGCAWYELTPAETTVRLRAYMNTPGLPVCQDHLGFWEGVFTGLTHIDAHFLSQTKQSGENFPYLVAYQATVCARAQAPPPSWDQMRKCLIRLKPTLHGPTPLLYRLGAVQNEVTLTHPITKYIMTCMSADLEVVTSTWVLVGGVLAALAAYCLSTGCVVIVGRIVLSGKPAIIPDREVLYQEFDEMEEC
Chain of HCV NS3/4A protease complex (P27958 1027-1711, stated change not applied): as above

| Compound | IC50 [1] | EC50 [2] |
| --- | --- | --- |
| C=CC1C[C@]1(NC(=O)C1CC(Oc2cc(-c3ccccc3)nc3cc(OC)ccc23)CN1C(=O)[C@@H](NC)C(C)(C)C)C(=O)NS(=O)(=O)C1CC1 (stereo partly drawn) [Compound 132, (3,3-dimethyl-2-methylamino-butyryl)-4R-(7-methoxy-2-phenyl-quinolin-4-yloxy)-pyrrolidine-2S-carboxylic acid (1R-cyclopropanesulfonylaminocarbonyl-2S-vinyl-cyclo-propyl)amide] | < 50 nM | < 5 µM |
| COc1ccc2c(OC3C[C@@H](C(=O)NC4(C(=O)NS(=O)(=O)C5CC5)CC45CCC5)N(C(=O)[C@@H](NC(=O)OC(C)(C)C)C(C)(C)C)C3)cc(-c3ccccc3)nc2c1 (stereo partly shown) [Compound 136, {1-[2-(1-Cyclopropanesulfonylaminocarbonyl-spiro[2.3]hex-1-ylcarbamoyl)-4-(7-methoxy-2-phenyl-quinolin-4-yloxy)-pyrrolidine-1-carbonyl]-2,2-dimethyl-propyl}-carbamic acid tert-butyl ester] | < 500 nM | < 5 µM |
| CCC(C)[C@H](NC(=O)OC(C)(C)C)C(=O)N1C[C@H](Oc2cc(-c3ccccc3)nc3cc(OC)ccc23)C[C@H]1C(=O)NC1(C(=O)NS(=O)(=O)C2CC2)CC12CCC2 (stereo partly shown) [Compound 137] | < 5000 nM | < 5 µM |
| COc1ccc2c(OC3C[C@@H](C(=O)NC4(C(=O)NS(=O)(=O)C5CC5)CC45CC5)N(C(=O)[C@@H](NC(=O)OC(C)(C)C)C(C)(C)C)C3)cc(-c3ccccc3)nc2c1 (stereo partly shown) [Compound 140, {1-[2-(1-Cyclopropanesulfonylaminocarbonyl-spiro[2.2]pentane-1-ylcarbamoyl)-4-(7-methoxy-2-phenyl-quinolin-4-yloxy)-pyrrolidine-1-carbonyl]-2,2-dimethyl-propyl}-carbamic acid tert-butyl ester] | < 50 nM | < 0.5 µM |
| COc1ccc2c(OC3C[C@@H](C(=O)NC4(C(=O)NS(=O)(=O)C5CC5)CCC45CC5)N(C(=O)[C@@H](NC(=O)OC(C)(C)C)C(C)(C)C)C3)cc(-c3ccccc3)nc2c1 (stereo partly shown) [Compound 141] | < 500 nM | < 5 µM |
